Results as given in EP1903056A2, “HLA-A1, -A2 -A3, -A24, -B7, and -B44 tumor associated antigen peptides and compositions” (priority 2002, dated 2004).
pIC50: −log10 of the molar value. Values belong to the molecule of their own block, whether it stands above or below them.

How the values were obtained:
B*3501 = B*3501 (Homo sapiens, UniProt P01889, A329T/A93T/A95T/C349S/D201E/D98Y/E176V/E187L/E204Q/E69T/I218V/K202T/L119I/Q94N/R155S/R180L/S121R/S35A/S48A/T118I/V127L/V306I/V36M/Y140S/Y91F); assay: Class I peptide-binding assay, B*3501
B*5401 = B*5401 (Homo sapiens, UniProt P01889, A329T/C349S/D138N/D201E/E176V/E187T/E204Q/E69G/I76V/K202T/L119W/R155S/R180L/S121T/S35A/S48A/V127L/V306I/V36M/Y140L); assay: Class I peptide-binding assay, B*5401; conditions: Table 17a
melanoma patients = melanoma patients vaccinated with peptide-pulsed DC or the peptide alone; cited from earlier work
cervical cancer patients [1] = conditions: cited from earlier work
cervical cancer patients [2] = conditions: two weeks after vaccination; PBMC stimulated in vitro with 5 µg/ml PADRE peptide; proliferation index > 5; cited from earlier work
HLA-A*0101 = HLA-A*0101 (Homo sapiens, UniProt P04439, A114D/A174V/A182V/D101N/D185E/E176A/E190D/L180R/Q94H/R68K/S129P/T187R/V100A/V91M/W191G); assay: Class I peptide-binding assay, A*0101; conditions: Table 18a, CEA-derived A1 binders
HLA-A*2402 = HLA-A*2402 (Homo sapiens, UniProt P04439, D101N/D140Y/D185E/E176V/E190D/F33S/G103R/G107R/I119L/I121M/I306V/K335N/L105A/L180Q/L300P/N151K/N90K/Q86E/Q94H/R106L/R138H/R89G/T104I/T345S/V100E/W191G/Y123F); assay: Class I peptide-binding assay, A*2402; conditions: Table 19a, CEA-derived A24 binders

pIC50 (B*3501; Table 17a): 5.00
Structure (SMILES): CC[C@H](C)[C@H](N)C(=O)N1CCC[C@H]1C(=O)N[C@@H](Cc1c[nH]c2ccccc12)C(=O)N[C@@H](CCC(N)=O)C(=O)N[C@@H](CCCNC(=N)N)C(=O)N[C@@H](CC(C)C)C(=O)N[C@@H](CC(C)C)C(=O)N[C@@H](CC(C)C)C(=O)N[C@H](C(=O)N[C@H](C(=O)O)[C@@H](C)CC)[C@@H](C)O [CEA.13I10]

pIC50 (B*3501; Table 17a): 5.00 | pIC50 (B*5401): 7.49
Structure (SMILES): CC[C@H](C)[C@H](N)C(=O)N1CCC[C@H]1C(=O)N[C@@H](Cc1c[nH]c2ccccc12)C(=O)N[C@@H](CCC(N)=O)C(=O)N[C@@H](CCCNC(=N)N)C(=O)N[C@@H](CC(C)C)C(=O)N[C@@H](CC(C)C)C(=O)N[C@@H](CC(C)C)C(=O)N[C@H](C(=O)N[C@@H](C)C(=O)O)[C@@H](C)O [CEA.13]

pIC50 (B*3501; Table 17a): 5.00
Structure (SMILES): CC[C@H](C)[C@H](NC(=O)[C@H](CO)NC(=O)[C@H](Cc1ccc(O)cc1)NC(=O)CNC(=O)[C@H](Cc1ccccc1)NC(=O)[C@H](CC(C)C)NC(=O)[C@H](Cc1c[nH]cn1)NC(=O)[C@H](CCC(N)=O)NC(=O)[C@@H]1CCCN1C(=O)[C@@H](N)CC(C)C)C(=O)O [CEA.58I10]

pIC50 (B*3501; Table 17b): 6.00
Structure (SMILES): CC[C@H](C)[C@H](NC(=O)[C@@H]1CCCN1C(=O)[C@H](CC(C)C)NC(=O)[C@@H]1CCCN1C(=O)CNC(=O)[C@H](CCC(=O)O)NC(=O)[C@H](CCCNC(=N)N)NC(=O)[C@@H]1CCCN1C(=O)[C@H](CO)NC(=O)[C@@H]1CCCN1C(=O)[C@@H]1CCCN1)C(=O)O [Her2/neu.1149.I11]

pIC50 (HLA-A*0101): 6.19
Structure (SMILES): CC[C@H](C)[C@H](N)C(=O)N[C@H](C(=O)N[C@@H](CCC(=O)O)C(=O)N[C@@H](CCCCN)C(=O)N[C@@H](CC(N)=O)C(=O)N[C@@H](CO)C(=O)NCC(=O)N[C@@H](CC(C)C)C(=O)N[C@@H](Cc1ccc(O)cc1)C(=O)O)[C@@H](C)O [compound 179]

The next lines start with the molecule.

Structure (SMILES): CC[C@H](C)[C@H](NC(=O)[C@@H]1CCCN1C(=O)[C@H](CC(=O)O)NC(=O)[C@@H](NC(=O)[C@@H](N)CCC(=O)O)C(C)C)C(=O)NCC(=O)N[C@@H](Cc1c[nH]cn1)C(=O)N[C@@H](CC(C)C)C(=O)N[C@@H](Cc1ccc(O)cc1)C(=O)O [MAGE3.168]
tumor regression in vaccinated patients (melanoma patients): tumor regression was observed

Structure (SMILES): CC(C)C[C@H](NC(=O)[C@@H](NC(=O)[C@H](Cc1c[nH]c2ccccc12)NC(=O)[C@H](C)NC(=O)[C@H](C)NC(=O)[C@@H](NC(=O)[C@H](CC1CCCCC1)NC(=O)[C@H](CCCCN)NC(=O)[C@@H](C)N)C(C)C)[C@@H](C)O)C(=O)N[C@@H](CCCCN)C(=O)N[C@@H](C)C(=O)N[C@@H](C)C(=O)N[C@H](C)C(N)=O [PADRE, aKXVAAWTLKAAa-NH2]
responding patients (cervical cancer patients [1]; 95% interval 10-65%): 33% | safety in trial (cervical cancer patients [1]; patients with recurrent or residual cervical carcinoma): favorable safety profile

Structure (SMILES): CC(C)C[C@H](NC(=O)[C@@H](NC(=O)[C@H](Cc1c[nH]c2ccccc12)NC(=O)[C@H](C)NC(=O)[C@H](C)NC(=O)[C@@H](NC(=O)[C@H](CC1CCCCC1)NC(=O)[C@H](CCCCN)NC(=O)[C@@H](C)N)C(C)C)[C@@H](C)O)C(=O)N[C@@H](CCCCN)C(=O)N[C@@H](C)C(=O)N[C@@H](C)C(=O)N[C@H](C)C(N)=O [aKXVAAWTLKAAa-NH2]
patients displaying PADRE-specific proliferation (cervical cancer patients [2]): 4/12

Structure (SMILES): CC(C)C[C@H](NC(=O)[C@H](CO)NC(=O)[C@H](CCC(N)=O)NC(=O)CNC(=O)[C@H](CC(N)=O)NC(=O)[C@@H](NC(=O)[C@H](Cc1c[nH]c2ccccc12)NC(=O)[C@H](Cc1c[nH]c2ccccc12)NC(=O)[C@@H](N)CC(C)C)C(C)C)C(=O)O [compound 283]
pIC50 (HLA-A*2402): 5.83
